Measured values from patent publication US20200254110A1, “LIGAND-CONJUGATES AND METHODS FOR TARGETED RECEPTOR-MEDIATED CELLULAR UPTAKE” (priority 2017, published 2020).
Ends that are not written are not given here.

Experiments:
[1] = tested on: PAR2 expressing keratinocytes (HaCaT); assay: PAR2 mediated endocytosis assay (fluorescence microscopy); type: cell-based, human; conditions: keratinocytes serum-starved 24 h, 2 h incubation, FIG. 5
Experimental: SOP: PAR2 Mediated Endocytosis Assay • Culture HaCaT (cultured human keratinocytes) cells in DMEM (Dulbecco's Modified Eagle Medium, phenol red free!) supplemented with 10% (w/v) FCS and antibiotics (gentamicin: 50 μg/mL final conc.) in a 10 cm cell culture plate at a confluency (one cell layer on the plate) of 60-70% • Count the cells and dilute to 1-2×10^4 cells/mL in DMEM (phenol red free!) • Incubate 1 mL of the diluted cell suspension in each well of a 24-well cell culture plate supplemented with 10% (w/v) FCS (containing gentamicin at a final conc. of 50 μg/mL) on a glass coverslip for 24 h at 37° C., 5% CO2 • Discard the supernatant and carefully wash the cells 3 times with 500 μL DMEM (phenol red free, without FCS!) • Incubate the cells for 24 h at 37° C., 5% CO2 (DMEM without serum addition, phenol red free only!) • Add CaCl2 solution to reach a final concentration of 1.5 mM in the medium when using Ca^2+-free medium (induction of cell differentiation) • For PAR2 activation […]
An endocytosis assay was used to test whether the PAR ligand-conjugate, i.e. PAR2 agonist P8 enhances the uptake of IONPs into PAR, here PAR2 expressing keratinocytes, when immobilized to the surface of the IONP. […] After the incubation, cells were washed thoroughly for several times and internalization of the modified IONPs was analyzed employing fluorescent microscopy (FIG. 5, lower right corner). […]

[2] = target: T1, PAR2 (Homo sapiens, UniProt P55085); conditions: PAR2 agonist peptide, reference [1]; cited from earlier work
T1 sequence (P55085 26-397): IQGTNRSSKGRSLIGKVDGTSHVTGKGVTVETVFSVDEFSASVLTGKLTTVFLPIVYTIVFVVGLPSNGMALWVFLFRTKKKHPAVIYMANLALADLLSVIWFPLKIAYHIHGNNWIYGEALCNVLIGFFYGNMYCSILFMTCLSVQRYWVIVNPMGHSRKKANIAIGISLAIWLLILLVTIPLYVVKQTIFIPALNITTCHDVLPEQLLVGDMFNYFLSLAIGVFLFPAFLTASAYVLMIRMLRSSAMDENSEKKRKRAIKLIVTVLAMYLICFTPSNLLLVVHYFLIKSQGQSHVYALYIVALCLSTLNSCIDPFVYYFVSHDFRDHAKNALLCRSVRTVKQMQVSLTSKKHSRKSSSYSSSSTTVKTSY

[3] = target: T2, PAR2-expressing HEK293 (human embryonic kidney) cells (Homo sapiens, UniProt P55085); assay: Intracellular Ca2+ mobilization assay (Indo-1 AM, flow cytometry); type: cell-based; conditions: for shift in relative fluorescence intensity (RFI) of the cells relative to the untreated sample (PAR2 activation, intracellular calcium mobilization): HEK293 cells preincubated with Indo-1 AM, P6 100-200 μM, P8 200-400 μM, flow cytometry; for relative potential of PAR2 activation (rank order): HEK293 cells, calcium mobilization, FIG. 4 A-C
T2 construct: PAR2-expressing HEK293 (human embryonic kidney) cells; endogenous in cells; host or cells: HEK293
T2 sequence (P55085 26-397): T1 sequence (P55085 26-397)
Text: To test whether the modified PAR ligands such as the synthesis intermediates as well as the final compound P8 are capable of binding and activating PAR in vitro a calcium-based cell activation assay was established on the basis of the assay for measurement of intracellular Ca^2+ mobilization described in Kelm et al., J. Exp. Med. 195 (2002), 1207-1213, which can be used directly on PAR, i.e. PAR2 expressing cells.
SOP: Measurement of Intracellular Ca^2+ Mobilization • Thaw 1 aliquot of frozen (from liquid N2) HEK293 cells (careful at RT) • Provide 10 mL of DMEM (Dulbecco's Modified Eagle Medium, phenol red free!) containing 10% FCS, antibiotics (50 μg/mL gentamicin final conc.) on a 10 cm cell culture plate • Add cells to the plate and grow them at 37° C., 8% CO2 until 60-70% confluency (one cell layer on the plate) • Wash the cells 3× with 10 mM PBS (phosphate buffer saline), pH 7.4 • Add 10 mL of fresh DMEM (phenol red free!) and carefully resuspend the cells • Count the cells employing a flow cytometer and dilute to 3×10^5 cells/mL in DMEM (phenol red free!) • Pipette 1 ml of the diluted cell suspension in each well of a 24-well cell culture plate • Add 30 μL of Pluronic® F-127 (0.01% (v/v) final conc., P2443 Sigma-Aldrich) and 15 μL of Indo 1-AM ester in DMSO (15 μM final conc., I3261 Sigma-Aldrich) to the cell suspension • Incubate for 45 min at 37° C., 8% CO2, in the dark • Henceforward keep the cells in the dark • Remove cells from the culture plate and subsequently wash 1× with 15 mL of HEPES buffer (100 mM HEPES, pH 7.4) to remove excess Indo 1-AM ester and resuspend cells in 1 mL HEPES buffer (100 mM HEPES, pH 7.4) • Add 10 μL propidium iodide (PI: final conc. 100 ng/mL, P4864 Sigma-Aldrich) to the cell suspension and immediately perform flow cytometry analysis • Perform flow cytometry analysis using the appropriate laser/filter sets (CyFlow® Cube 8 Sysmex):
Indo 1-AM: λexcitation,max 345 nm, λemission,max 400 nm (Ca^2+ bound), λemission,max 475 nm (Ca^2+ free), (excitation: UV-LED, emission: FL4 channel, 455/50 nm)
PI: λexcitation,max 535 nm (DNA-bound), λemission,max 617 nm (DNA-bound), (excitation: 488 nm laser, emission: FL2 channel, 590/50 nm) • For PAR-2 activation, add the appropriate amount of activator (SLIGRL: 50 μM final conc., trypsin: 40 Units (TRYPSEQM-RO Roche), P6 or P8: 100-200 μM or 200-400 μM respectively) to the cell suspension (containing 15 nmol Indo 1-AM ester) and immediately perform flow cytometry analysis • Determine the decrease in relative fluorescence intensity (due to the shift from unbound towards calcium bound Indo 1-AM complexes) after PAR mediated activation of HEK293 cells
As described above, activation of PARs leads to the initiation of a variety of signal transduction pathways and downstream signaling. One consequence of PAR activation presents the intracellular calcium mobilization from storage reservoirs of the endoplasmic reticulum (ER) and mitochondria into the cytosol. […] In the present assay the Indo-1 AM fluorophore was used, which is an esterified derivative of Indo-1 and thus able to penetrate the cell membrane. Upon uptake into the cytoplasm, present esterases will transfer the ester into the carboxylate, which is then trapped in the cell due to its obtained negative charges. A shift in Indo-1 AM emission from 480 nm (calcium free Indo-1 AM) to 400 nm (calcium bound Indo-1 AM) can be detected employing a flow cytometer, when bound to free calcium. […]

Substance | uptake (internalization) into cultured keratinocytes [1] | effectiveness relative to SLIGRL-NH2 [2] | shift in relative fluorescence intensity (RFI) of the cells relative to the untreated sample (PAR2 activation, intracellular calcium mobilization) [3] | relative potential of PAR2 activation (rank order) [3]
P8 modified IONPs (SLIGRL; not fully specified (C-terminus); also: P8 modified IONPs (on iron oxide nanoparticles)) | successful uptake | – | – | –
2-furoyl(1)L(2)IG(4)RL(6)-NH2 | – | 10-20 fold | – | –
NH2-DEG-SLIGRL [P6] | – | – | induced a shift in relative fluorescence intensity | decreased from SLIGRL-NH2, to P6 and further to P8
Fam5/6-Lysine-DEG-SLIGRL [P8] | – | – | induced a shift in relative fluorescence intensity | decreased from SLIGRL-NH2, to P6 and further to P8
SerLeuIleGlyArgLeu-NH2 (SLIGRL-NH2) [PAR2 agonist hexapeptide, native tethered ligand of rodent PAR2, reference compound] | – | – | – | decreased from SLIGRL-NH2, to P6 and further to P8
